Laboratory results: publication PMC12333015, “Profiling the Impact of mGlu7/Elfn1 Protein Interactions on the Pharmacology of mGlu7 Allosteric Modulators” (ACS Chemical Neuroscience, 2025)
Read-outs that look alike come from different tables or passages of the source. Blank lines part the entries; values can stand above or below the molecule they belong to.

How the values were obtained:
rat mGlu7 = molecular target: T1, rat mGlu7 (Rattus norvegicus, UniProt P35400); assay: Thallium flux assay, mGlu7/GIRK HEK293 cells cocultured with pcDNA3 vector control cells; assay type: cell-based; details: for baseline Resp ± SEM, pcDNA / Maximal Resp ± SEM, pcDNA / response below baseline at inactive L-AP4 concentrations / % inhibition Resp ± SEM, pcDNA: 10 μM compound; for baseline Resp ± SEM, pcDNA: average response at bottom three L-AP4 concentrations, Percent L-AP4/pcDNA/DMSO Max; for Maximal Resp ± SEM, pcDNA: average response at top two L-AP4 concentrations, normalized to L-AP4 max with pcDNA/DMSO; for response below baseline at inactive L-AP4 concentrations: observed regardless of the presence of Elfn1; for % inhibition Resp ± SEM, pcDNA: of maximal L-AP4 response; for IC50: compound concentration-response in presence of 600 μM L-AP4 (EC80), read-out: compound pIC50 ± SEM, pcDNA (converted); for compound Min Resp ± SEM, pcDNA: minimal curve fit response, 600 μM L-AP4, maximal inhibition at 30 μM compound, normalized to 600 μM L-AP4 response; for Emax: HEK293, read-out: PAM Maximal response, pcDNA; for Emax / EC50: PAM concentration-response at an EC20 concentration of L-AP4; for Fold potentiation, pcDNA: fold potentiation of an EC20 concentration of L-AP4
T1 construct: expressed in transfected cells; host or cells: HEK293A cells stably expressing mGlu7 and GIRK1/2
Text: (§1) We began our evaluation of mGlu7 ligands in the presence and absence of Elfn1 by using a coculture system as previously described , with several modifications (Figure ). Cells expressing rat mGlu7 and coexpressing G protein inwardly rectifying potassium (GIRK) channels 1 and 2 were cocultured with cells expressing either an empty pcDNA3 vector control or a plasmid containing Elfn1 in the pcDNA3 backbone. We then evaluated the activity of the orthosteric agonist L-AP4 and measured effects on maximal response and pEC50. All responses were normalized to the maximal effect of L-AP4 in the presence of the pcDNA3 control plasmid.
(§2) 2 Assay design and workflow. (Left panel) Cells expressing rat mGlu7/GIRK (pink) were cocultured with pcDNA3 (blue) or Elfn1 (purple). […] (Right panel) The effect on the concentration–response curve in the presence (purple) or absence (blue) of Elfn1 can be seen by a change in efficacy, potency, and/or basal response.
(§3) HEK293A cells stably expressing mouse Elfn1 or pcDNA3 were maintained in growth medium containing 90% Dulbecco’s Modified Eagle Media (DMEM), 10% fetal bovine serum (FBS), 100 units/mL penicillin/streptomycin, 20 mM HEPES, 1 mM sodium pyruvate, 2 mM L-glutamine, 1× nonessential amino acids, and 700 μg/mL G418 sulfate. HEK mGlu7/GIRK cells were maintained in a growth medium with 90% DMEM/F12, 10% dialyzed FBS, 100 units/mL penicillin/streptomycin, 20 mM HEPES, 1 mM sodium pyruvate, 2 mM L-glutamine, 1× nonessential amino acids, 700 μg/mL G418 sulfate, and 600 ng/mL puromycin. All cell culture reagents were purchased from Invitrogen (Carlsbad, CA).
(§4) Thallium flux assays were performed as previously described. A mixture of HEK293A mGlu7/GIRK cells and pcDNA3 or Elfn1-expressing HEK293A cells (5000/15,000 cells/20 μL/well for agonist and PAM experiments; 7500/15,000 cells/20 μL/well for NAM experiments) was seeded in 384-well, amine-coated assay plates (Greiner Bio-One, Monroe, NC). Cells were incubated overnight in a humidified 5% CO2 cell culture incubator at 37 °C. […] Following a 1 h incubation at room temperature, the dye loading solution was replaced with 20 μL/well assay buffer and the plates were loaded into a Hamamatsu FDSS 7000 (Bridgewater, NJ). […] Thallium flux data were analyzed by first dividing each point in each wave by the first point in that wave and then subtracting the average of the vehicle control response. The slopes of these vehicle control-subtracted waves were calculated over ten data points beginning 2 s after thallium stimulus addition and fit to a three-parameter logistic equation in GraphPad Prism (La Jolla, CA). In most cases, the final data were normalized to the response of the mGlu7/pcDNA3 with vehicle and 5 mM L-AP4 unless otherwise noted. Potency (pEC50) and maximum responses (E max) induced by compounds were determined using a four-parameter logistical equation in Prism. Basal activity was calculated with data points at the three lowest test concentrations. Maximum activity was calculated with data points at two highest concentrations. All experiments were replicated at least three times in duplicate or triplicate.

mGlu7/Elfn1 = molecular target: T2, mGlu7/Elfn1 (Rattus norvegicus, UniProt P35400); assay: Thallium flux assay, mGlu7/GIRK HEK293 cells cocultured with Elfn1-expressing cells; assay type: cell-based, mouse Elfn1; details: for baseline Resp ± SEM, Elfn1 / Maximal Resp ± SEM, Elfn1 / % inhibition Resp ± SEM, Elfn1: 10 μM compound; for baseline Resp ± SEM, Elfn1: average response at bottom three L-AP4 concentrations, Percent L-AP4/pcDNA/DMSO Max; for Maximal Resp ± SEM, Elfn1: average response at top two L-AP4 concentrations, normalized to L-AP4 max with pcDNA/DMSO; for % inhibition Resp ± SEM, Elfn1: of maximal L-AP4 response; for IC50: compound concentration-response in presence of 600 μM L-AP4 (EC80), read-out: compound pIC50 ± SEM, Elfn1 (converted); for compound Min Resp ± SEM, Elfn1: minimal curve fit response, 600 μM L-AP4, maximal inhibition at 30 μM compound, normalized to account for lower agonist max with Elfn1; for Emax: HEK293, read-out: PAM Maximal response, Elfn1; for Fold potentiation, Elfn1: fold potentiation of an EC20 concentration of L-AP4
T2 construct: expressed in transfected cells; host or cells: HEK293A mGlu7/GIRK cells cocultured with HEK293A polyclonal cells stably expressing Elfn1-Myc (pcDNA3)
Text: as §1, §2
HEK293A polyclonal cells stably expressing either Elfn1 or empty vector were passaged in media (Dulbecco’s modified Eagle medium (DMEM), supplemented with 10% fetal bovine serum (FBS), 20 mM N-(2-hydroxyethyl)-piperazine-N′-ethanesulfonic acid (HEPES), 1 mM Na pyruvate, 2 mM Glutamax, 0.1 mM nonessential amino acids, 1× antibiotic/antimycotic) under G418 (700 μg/mL) selection to maintain expression.
as §3
as §4, with “NJ). Data were acquired at 1 Hz (excitation 470 ± 20 nm, emission 540 ± 30 nm) for 10 s, followed by the addition of 20 μL/well of 10 μM NAM/PAM/DMSO, followed by an additional 4 min of data collection.” for “NJ).”, “Prism.” for “Prism. Basal activity was calculated with data points at the three lowest test concentrations. Maximum activity was calculated with data points at two highest concentrations. All experiments were replicated at least three times in duplicate or triplicate.”

[1] = 10 μM PAM, L-AP4 CRC, normalized to percent L-AP4 response with pcDNA and DMSO
[2] = PAM concentration-response at an EC20 concentration of L-AP4
[3] = 10 μM NAM, three lowest L-AP4 concentrations, normalized to mGlu7/pcDNA3 vehicle L-AP4 max

T1 sequence (P35400 35-915): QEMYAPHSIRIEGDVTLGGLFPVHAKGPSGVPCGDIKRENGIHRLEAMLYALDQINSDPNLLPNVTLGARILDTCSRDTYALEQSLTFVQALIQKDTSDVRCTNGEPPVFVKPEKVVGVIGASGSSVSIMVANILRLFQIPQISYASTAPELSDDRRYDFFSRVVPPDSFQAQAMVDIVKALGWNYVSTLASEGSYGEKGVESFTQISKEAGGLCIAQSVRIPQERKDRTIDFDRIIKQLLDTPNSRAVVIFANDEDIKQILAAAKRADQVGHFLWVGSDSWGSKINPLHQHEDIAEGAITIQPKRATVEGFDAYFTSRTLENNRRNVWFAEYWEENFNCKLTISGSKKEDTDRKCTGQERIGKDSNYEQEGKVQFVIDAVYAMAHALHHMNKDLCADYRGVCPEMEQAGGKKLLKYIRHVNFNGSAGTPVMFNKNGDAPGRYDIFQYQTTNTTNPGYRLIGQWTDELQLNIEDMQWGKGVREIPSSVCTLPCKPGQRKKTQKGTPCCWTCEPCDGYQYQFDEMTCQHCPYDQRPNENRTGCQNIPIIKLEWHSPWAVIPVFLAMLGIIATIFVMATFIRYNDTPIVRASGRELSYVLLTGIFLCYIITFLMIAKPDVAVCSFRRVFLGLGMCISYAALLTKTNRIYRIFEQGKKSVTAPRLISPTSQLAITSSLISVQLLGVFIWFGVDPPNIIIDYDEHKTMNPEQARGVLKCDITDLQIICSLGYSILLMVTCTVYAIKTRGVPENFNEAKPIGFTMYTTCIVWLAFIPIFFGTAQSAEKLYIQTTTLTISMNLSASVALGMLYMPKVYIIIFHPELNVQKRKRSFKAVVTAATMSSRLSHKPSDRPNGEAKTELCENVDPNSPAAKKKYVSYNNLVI
T2 sequence (P35400 35-915): as above
T2 sequence (Q8C8T7 26-828 partner): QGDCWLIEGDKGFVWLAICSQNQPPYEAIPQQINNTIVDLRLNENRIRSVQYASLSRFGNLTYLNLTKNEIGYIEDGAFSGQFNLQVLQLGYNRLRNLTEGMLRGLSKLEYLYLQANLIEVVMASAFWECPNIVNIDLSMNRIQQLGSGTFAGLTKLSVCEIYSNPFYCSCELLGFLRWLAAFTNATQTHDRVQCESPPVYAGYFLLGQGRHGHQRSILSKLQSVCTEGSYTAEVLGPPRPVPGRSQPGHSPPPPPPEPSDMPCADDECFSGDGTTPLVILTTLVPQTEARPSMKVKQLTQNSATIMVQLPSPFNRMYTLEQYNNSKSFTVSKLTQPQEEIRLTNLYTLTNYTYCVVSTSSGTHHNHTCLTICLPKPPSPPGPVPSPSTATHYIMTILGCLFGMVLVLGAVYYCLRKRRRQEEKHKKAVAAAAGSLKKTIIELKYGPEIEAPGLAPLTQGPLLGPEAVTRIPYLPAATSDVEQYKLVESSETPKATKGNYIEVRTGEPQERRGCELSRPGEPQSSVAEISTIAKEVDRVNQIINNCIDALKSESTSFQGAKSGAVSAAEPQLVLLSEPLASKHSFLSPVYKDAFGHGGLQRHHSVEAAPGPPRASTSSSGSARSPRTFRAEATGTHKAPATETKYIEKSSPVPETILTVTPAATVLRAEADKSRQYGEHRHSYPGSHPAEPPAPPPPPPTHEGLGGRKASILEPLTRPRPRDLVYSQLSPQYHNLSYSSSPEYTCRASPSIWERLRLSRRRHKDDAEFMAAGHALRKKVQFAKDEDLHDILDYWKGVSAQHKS

SMILES: COC(=O)c1ccc(-n2c(C)cc(C(=O)CSc3ccc(NC(C)=O)cc3)c2C)cc1 [VU0155094]
baseline response ± SEM, pcDNA (rat mGlu7; [1]): 6.4±2.3% | Emax (rat mGlu7): 138 ± 5.2% | EC50 (rat mGlu7; read-out: PAM pEC50, pcDNA (converted)): 3.55 µM | Fold potentiation, pcDNA (rat mGlu7): 4.4±0.3 fold | baseline response ± SEM, Elfn1 (mGlu7/Elfn1; [1]): 1.0±1.7% | Emax (mGlu7/Elfn1; [2]): 66.3 ± 3.6% | EC50 (mGlu7/Elfn1; PAM concentration-response at an EC20 concentration of L-AP4, read-out: PAM pEC50, Elfn1 (converted)): 2.82 µM | Fold potentiation, Elfn1 (mGlu7/Elfn1): 2.7±0.2 fold

SMILES: CCCOc1ccc(C(=O)Nc2cc(OC(F)(F)F)ccc2-n2cncn2)cc1OC [VU6010953]
baseline response ± SEM, pcDNA (rat mGlu7; [3]): –12.5 ± 2.2 | baseline response ± SEM, Elfn1 (mGlu7/Elfn1; [3]): –8.1 ± 1.1

SMILES: COc1cc(C(=O)Nc2cc(OC(F)(F)F)ccc2-n2cncn2)ccc1OCC1CC1 [VU6012962, N-(2-(1 H-1,2,4-triazol-1-yl)-5-(trifluoromethoxy)phenyl)-4-(cyclopropylmethoxy)-3-methox ybenzamide]
baseline response ± SEM, pcDNA (rat mGlu7; [3]): –19.1 ± 2.4 | baseline response ± SEM, Elfn1 (mGlu7/Elfn1; [3]): –8.1 ± 2.0

SMILES: COc1ccc(-c2cnc(-c3cc(OC(F)(F)F)ccc3-n3cncn3)o2)cc1OC [VU6018226]
baseline response ± SEM, pcDNA (rat mGlu7; [3]): –6.6 ± 1.8 | baseline response ± SEM, Elfn1 (mGlu7/Elfn1; [3]): 0.2 ± 3.5

SMILES: COc1cc(F)cc2c(N3CCN(c4ccccc4F)CC3)c(C#N)cnc12 [VU6027459]
baseline response ± SEM, pcDNA (rat mGlu7; [1]): 25.6±12.0% | Emax (rat mGlu7): 75.8 ± 5.2% | EC50 (rat mGlu7; PAM pEC50, pcDNA): 1 µM | Fold potentiation, pcDNA (rat mGlu7): 3.0±0.4 fold | baseline response ± SEM, Elfn1 (mGlu7/Elfn1; [1]): 12.5±8.4% | Emax (mGlu7/Elfn1; [2]): 44.1 ± 4.5% | EC50 (mGlu7/Elfn1; PAM pEC50, Elfn1, PAM concentration-response at an EC20 concentration of L-AP4): 1.62 µM | Fold potentiation, Elfn1 (mGlu7/Elfn1): 2.0±0.2 fold

SMILES: O=c1c(Oc2ccc(I)cc2)coc2cc(O)ccc12 [XAP044, reference compound]
baseline Resp ± SEM, pcDNA (rat mGlu7): –11.4 ± 4.8 % | Maximal Resp ± SEM, pcDNA (rat mGlu7): 1.7 ± 3.6 % | response below baseline at inactive L-AP4 concentrations (rat mGlu7): inverse agonist activity | % inhibition Resp ± SEM, pcDNA (rat mGlu7): 1.6 ± 3.5% | IC50 (rat mGlu7): 1.66 µM | compound Min Resp ± SEM, pcDNA (rat mGlu7): 6.9 ± 6.5 | baseline Resp ± SEM, Elfn1 (mGlu7/Elfn1): –6.5 ± 1.3 % | Maximal Resp ± SEM, Elfn1 (mGlu7/Elfn1): –13.2 ± 1.7 % | % inhibition Resp ± SEM, Elfn1 (mGlu7/Elfn1): –30.4 ± 2.9 % | IC50 (mGlu7/Elfn1): 0.38 µM | compound Min Resp ± SEM, Elfn1 (mGlu7/Elfn1): 2.5 ± 8.4

Continued, values first:

baseline Resp ± SEM, pcDNA (rat mGlu7): –21.5 ± 2.0 % | Maximal Resp ± SEM, pcDNA (rat mGlu7): –0.08 ± 1.4 % | response below baseline at inactive L-AP4 concentrations (rat mGlu7): inverse agonist activity | % inhibition Resp ± SEM, pcDNA (rat mGlu7): –0.11 ± 1.4% | IC50 (rat mGlu7): 0.195 µM | compound Min Resp ± SEM, pcDNA (rat mGlu7): –32.9 ± 8.0 | baseline Resp ± SEM, Elfn1 (mGlu7/Elfn1): –12.7 ± 2.9 % | Maximal Resp ± SEM, Elfn1 (mGlu7/Elfn1): –10.1 ± 1.7 % | % inhibition Resp ± SEM, Elfn1 (mGlu7/Elfn1): –22.4 ± 3.4 % | IC50 (mGlu7/Elfn1): 0.141 µM | compound Min Resp ± SEM, Elfn1 (mGlu7/Elfn1): –28.5 ± 5.5
SMILES: CCc1nc2c(o1)CC(c1ccc(C)cc1C)CC2=O (centres unmarked) [ADX71743, reference compound]

baseline response ± SEM, pcDNA (rat mGlu7; [3]): –14.5 ± 2.6 | baseline response ± SEM, Elfn1 (mGlu7/Elfn1; [3]): –9.0 ± 0.9
SMILES: COc1ccc(C(=O)Nc2cc(OC(F)(F)F)ccc2-n2cncn2)cc1OC [VU6010608]

baseline response ± SEM, pcDNA (rat mGlu7; [3]): –11.5 ± 4.7 | baseline response ± SEM, Elfn1 (mGlu7/Elfn1; [3]): –5.7 ± 5.9
SMILES: COc1ccc(-c2noc(-c3cc(Cl)ccc3-n3cncn3)n2)cc1OC [VU6017743]

baseline response ± SEM, pcDNA (rat mGlu7; [3]): –5.3 ± 3.7 | baseline response ± SEM, Elfn1 (mGlu7/Elfn1; [3]): –0.7 ± 4.5
SMILES: COc1ccc(-c2nnc(-c3cc(OC(F)(F)F)ccc3-c3cn[nH]c3)o2)cc1OC [VU6019282]
